Experiments:
[1] = molecular target: smooth muscle angiotensin II receptor; assay: Assay A: Angiotensin II Binding Activity; conditions: displacement of 125I-AII, rat uterine membrane preparation
Method: Compounds of the invention were tested for ability to bind to the smooth muscle angiotensin II receptor using a rat uterine membrane preparation. […] Other chemicals were obtained from Sigma Chemical Co. This assay was carried out according to the method of Douglas et al [Endocrinology, 106, 120-124 (1980)]. Rat uterine membranes were prepared from fresh tissue. All procedures were carried out at 4° C. Uteri were stripped of fat and homogenized in phosphate-buffered saline at pH 7.4 containing 5 mM EDTA. The homogenate was centrifuged at 1500×g for 20 min., and the supernatant was recentrifuged at 100,000×g for 60 min. The pellet was resuspended in buffer consisting of 2 mM EDTA and 50 mM Tris-HCl (pH 7.5) to a final protein concentration of 4 mg/ml. […] The reaction was initiated by the addition of membrane protein and the mixture was incubated at 25° C. for 60 min. The incubation was terminated with ice-cold 50 mM Tris-HCl (pH 7.5) and the mixture was filtered to separate membrane-bound labelled peptide from the free ligand. The incubation tube and filter were washed with ice-cold buffer. Filters were assayed for radioactivity in a Micromedic gamma counter. […] Specific binding was calculated as total binding minus nonspecific binding. […] Binding data were analyzed by a nonlinear least-squares curve fitting program.

rabbit aortic rings = assay: Assay B: In Vitro Vascular Smooth Muscle Response for AII; conditions: test antagonist at 10^-5 M, AII contraction
Method: The compounds of the invention were tested for antagonist activity in rabbit aortic rings. Male New Zealand white rabbits (2-2.5 kg) were sacrificed using an overdose of pentobarbital and exsanguinated via the carotid arteries. The thoracic aorta was removed, cleaned of adherent fat and connective tissue and then cut into 3-mm ring segments. The endothelium was removed from the rings by gently sliding a rolled-up piece of filter paper into the vessel lumen. The rings were then mounted in a water-jacketed tissue bath, maintained at 37° C., between moveable and fixed ends of a stainless steel wire with the moveable end attached to an FT03 Grass transducer coupled to a Model 7D Grass Polygraph for recording isometric force responses. […] The preparations were equilibrated for one hour before approximately one gram of passive tension was placed on the rings. Angiotensin II concentration-response curves were then recorded (3×10^−10 to 1×10^−5 M). Each concentration of AII was allowed to elicit its maximal contraction, and then AII was washed out repeatedly for 30 minutes before rechallenging with a higher concentration of AII. Aorta rings were exposed to the test antagonist at 10^−5 M for 5 minutes before challenging with AII. […] Each test antagonist was evaluated in aorta rings from two rabbits.

AII pressor response = assay: Assay C: In Vivo Intraduodenal Pressor Assay Response for AII Antagonists; design: species or system rat; conditions: anesthetized Sprague-Dawley rats, 30 mg/kg i.d.; for Assay C Inhibition: inhibition of AII pressor response; for Assay C Duration: time from peak percent inhibition to 50% of peak
Method: Male Sprague-Dawley rats weighing 225-300 grams were anesthetized with Inactin (100 mg/kg, i.p.) and catheters were implanted into the trachea, femoral artery, femoral vein and duodenum. Arterial pressure was recorded from the femoral artery catheter on a Gould chart recorder (Gould, Cleveland, Ohio). The femoral vein catheter was used for injections of angiotensin II, mecamylamine and atropine. The tracheal catheter allows for airway patency, and the duodenal catheter was used for intraduodenal (i.d.) administration of test compounds. After surgery, the rats were allowed to equilibrate for 30 minutes. Mecamylamine (3 mg/kg, 0.3 ml/kg) and atropine (400 ug/kg, 0.3 ml/kg) were then given i.v. to produce ganglion blockade. These compounds were administered every 90 minutes throughout the test procedure. Angiotensin II was given in bolus doses i.v. (30 ng/kg in saline with 0.5% bovine serum albumin, 0.1 ml/kg) every 10 minutes three times or until the increase in arterial pressure produced was within 3 mmHg for two consecutive AII injections. The last two AII injections were averaged and were taken as the control AII pressor response. Ten minutes after the final control AII injection, the test compound (dissolved in sodium bicarbonate) was administered i.d. at a dose of 30 mg/kg in a volume of 0.2 ml. Angiotensin II injections were then given 5, 10, 20, 30, 45, 60, 75, 90, and 120 minutes after administration of the test compound and response of arterial pressure was monitored. The response to AII was calculated as percent of the control response and then the percent inhibition is calculated as 100 minus the percent control response. Duration of action of a test compound was defined as the time from peak percent inhibition to 50% of peak. One compound at one dose was tested in each rat. Each test compound was tested in two rats and the values for the two rats were averaged.

Row | IC50 [1] | melting point | SMILES | Assay B pA2 (rabbit aortic rings) | Assay C Inhibition (AII pressor response) | Assay C Duration (AII pressor response)
1 | 5.8 µM | 181 to 182 °C | CCCCc1nc(Cl)c(Cl)n1Cc1ccc(-n2cccc2C(=O)O)cc1 [Example 1, 1-[4-[(2-n-Butyl-4,5-dichloro-imidazolyl)methyl]phenyl]-1H-pyrrole-2-carboxylic Acid] | 5.6 | 74% | 5 to 10 min
2 |  |  | CCCCc1nc(Cl)c(CO)n1Cc1ccc(-n2cccc2C(=O)O)cc1 [Example 2] |  | 92% | 20 to 30 min
3 |  | 180 to 181 °C | CCCCc1nc(CO)c(Cl)n1Cc1ccc(-n2cccc2C(=O)O)cc1 [Example 3] |  |  | 

From patent US6451833B1, “N-substituted (α-imidazolyl-toluyl)pyrrole compounds for treatment of circulatory disorders” (Pharmacia Corporation, priority 1991, dated 2002)
